Measurements published in patent US4624960A, “Sedative having analgesic and bradycardiac properties” (Boehringer Ingelheim Vetmedica GmbH, priority 1984, dated 1986).
Counter-ions that a name gives are not always drawn.

Tests used:
[1] = Bradycardiac effect (general statement); settings: in vivo
[2] = system: Horse; experiment: Sedation and analgesia in horse, activity vs dosage; format: in vivo
Source text: (§1) The following table sets forth the correlation between activity and dosage of 2-[(2-bromo-6-fluorophenyl)-imino]-imidazolidine hydrochloride: […]

[3] = Bradycardiac Effect; format: in vivo
[4] = system: Poultry; experiment: Sedation in poultry, activity vs dosage; format: in vivo
Source text: as §1

[5] = Writhing Test (analgesic effect); format: in vivo
[6] = system: Calf; experiment: Premedication for surgical intervention (hernia umbilicalis) in calf; format: in vivo; settings: 0.01 mg/kg i.v., operation 20 minutes after injection
Source text: as §1

[7] = system: Pig; experiment: Sedation and analgesia in pig, activity vs dosage; format: in vivo
Source text: as §1

[8] = system: Cattle (calf); experiment: Sedation and analgesia in cattle (calf), activity vs dosage; format: in vivo; settings: for Effect: analgesia / Effect: sedation / Effect: sleep: cattle (calf)
Source text: as §1

## Fc1cccc(Br)c1N=C1NCCN1 [2-[(2-bromo-6-fluorophenyl)-imino]-imidazolidine]
[1]
  bradycardiac effect: marked bradycardiac effect

## Cl.Fc1cccc(Br)c1N=C1NCCN1 [2-[(2-Bromo-6-fluorophenyl)-imino]-imidazolidine hydrochloride]
[2]; 0.03 mg/kg i.m.
  Effect: analgesia: no
  Effect: sedation: light sedation
[2]; 0.03 mg/kg i.v.
  Effect: analgesia: slight
  Effect: sedation: light sedation
[2]; 0.06 mg/kg i.m.
  Effect: analgesia: rather weaker analgesia
  Effect: sedation: moderate sedation
[2]; 0.06 mg/kg i.v.
  Effect: analgesia: good
  Effect: sedation: strong sedation
[2]; 0.07 mg/kg i.v.
  Effect: analgesia: good
  Effect: sedation: strong sedation
[2]; 0.08 mg/kg i.m.
  Effect: analgesia: good analgesia
  Effect: sedation: strong sedation
[3]
  ED60: 3 µg/kg
[4]; 2.0 mg/kg i.m.
  Effect: sedation: strong sedation
[4]; 2.0 mg/kg p.o.
  Effect: sedation: good sedation
[4]; 0.01-0.1 mg/kg i.m.
  Effect: sedation: weak sedation
[4]; 0.1-0.5 mg/kg i.m.
  Effect: sedation: good sedation
[4]; 0.5-1.0 mg/kg i.m.
  Effect: sedation: very good sedation
[4]; 0.5-1.0 mg/kg p.o.
  Effect: sedation: good sedation
[5]
  ED50: 4 µg/kg
[6]
  Effect: analgesia during and after the operation: good
  Effect: sedation during and after the operation: good
[7]; 0.01-0.03 mg/kg i.m.
  Effect: analgesia: weak
  Effect: sedation: weak sedation
[7]; 0.01-1.0 mg/kg i.m.
  Effect: sedation: strong sedation
[7]; 0.03-0.06 mg/kg i.m.
  Effect: analgesia: rather weaker
  Effect: sedation: good sedation
[7]; 0.06-0.1 mg/kg i.m.
  Effect: analgesia: good
  Effect: sedation: very good sedation
[8]; calf, 0.04 mg/kg p.o.
  Effect: depth of sedation: very good depth of sedation
  Effect: rousability: animal cannot be roused
[8]; 0.006 mg/kg i.v., i.m.
  Effect: analgesia: no analgesia
  Effect: sedation: low-level sedation
[8]; 0.008 mg/kg i.m.
  Effect: sedation: good sedation
  Effect: sleep: deep
[8]; 0.009 mg/kg i.m.
  Effect: sedation: very good sedation
  Effect: sleep: deep sleep
[8]; 0.009 mg/kg i.m., i.v. result: not total
  Effect: analgesia: as with i.v.
[8]; 0.009 mg/kg i.v.
  Effect: analgesia: not total
  Effect: sedation: very good sedation
  Effect: sleep: deep sleep
[8]; 0.01 mg/kg i.m.
  Effect: analgesia: moderate analgesia
  Effect: sedation: very good sedation
[8]; 0.01 mg/kg i.v.
  Effect: analgesia: moderate analgesia
  Effect: sedation: very good sedation

## Clc1cccc(Cl)c1N=C1NCCN1 [2-[(2,6-Dichlorophenyl)-imino]-imidazolidine.HCl, reference compound]
[3]
  ED60: 10 µg/kg
[5]
  ED50: 17 µg/kg
